The source of these data is article PMC3362645, “The Sigma Class Glutathione Transferase from the Liver Fluke Fasciola hepatica” (PLoS Neglected Tropical Diseases, 2012).

The experiment addresses T1, rFhGST-S1 (recombinant Fasciola hepatica Sigma class glutathione transferase) (Fasciola hepatica, UniProt Q06A71).
T1 sequence (Q06A71 1-211): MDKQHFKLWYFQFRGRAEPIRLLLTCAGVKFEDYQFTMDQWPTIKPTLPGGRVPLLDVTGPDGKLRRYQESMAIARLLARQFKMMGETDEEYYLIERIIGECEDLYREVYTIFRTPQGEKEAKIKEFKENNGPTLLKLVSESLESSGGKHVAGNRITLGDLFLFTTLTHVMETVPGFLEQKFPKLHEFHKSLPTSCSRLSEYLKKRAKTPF
Briefly: inhibition of GSH-CDNB conjugation, spectrophotometric, graphical IC50. Type of experiment: biochemical.
Regarding `C[C@H](CCC(=O)O)[C@H]1CC[C@H]2[C@@H]3[C@H](O)C[C@@H]4C[C@H](O)CC[C@]4(C)[C@H]3CC[C@]12C` [Chenodeoxycholic acid], the IC50 (as a rule, the concentration needed to halve the response being measured) was determined as 64 ± 9 µM.
For `C[C@H](CCC(=O)O)[C@H]1CC[C@H]2[C@@H]3[C@H](O)C[C@@H]4C[C@H](O)CC[C@]4(C)[C@H]3C[C@H](O)[C@]12C` [Cholic acid], the IC50 is 302 ± 73 µM.
As for `C[C@H](CCC(=O)O)[C@H]1CC[C@H]2[C@@H]3CC[C@@H]4C[C@H](O)CC[C@]4(C)[C@H]3C[C@H](O)[C@]12C` [Deoxycholic acid], the figure is 223 ± 21 µM; as for `C[S+]([O-])c1nc2cc(Cl)c(Oc3cccc(Cl)c3Cl)cc2[nH]1` (stereo not shown) [TCBZ SO, sulphoxide derivative of Triclabendazole], 57 ± 5 µM.
